Counter-ions that a name gives are not always drawn.
How the values were obtained:
human V2 receptor = human V2 receptor (Homo sapiens, UniProt P30518); assay: Vasopressin 2 (V2) Receptor Binding; settings: competition with 0.5 nM 3H-vasopressin, membranes of CHO cells expressing human V2 receptor, 2 hours at 22° C.
[1] = biological target: Vasopressin 1 (V1) receptor (Homo sapiens, UniProt P37288); assay: Vasopressin 1 (V1) Receptor Binding; settings: competition with 1.5 nM 3H-vasopressin, platelet membrane preparation from blood of normal subjects, 15 minutes at 30° C.
Vasopressin 1 (V1) receptor, sequence (P37288 whole entry): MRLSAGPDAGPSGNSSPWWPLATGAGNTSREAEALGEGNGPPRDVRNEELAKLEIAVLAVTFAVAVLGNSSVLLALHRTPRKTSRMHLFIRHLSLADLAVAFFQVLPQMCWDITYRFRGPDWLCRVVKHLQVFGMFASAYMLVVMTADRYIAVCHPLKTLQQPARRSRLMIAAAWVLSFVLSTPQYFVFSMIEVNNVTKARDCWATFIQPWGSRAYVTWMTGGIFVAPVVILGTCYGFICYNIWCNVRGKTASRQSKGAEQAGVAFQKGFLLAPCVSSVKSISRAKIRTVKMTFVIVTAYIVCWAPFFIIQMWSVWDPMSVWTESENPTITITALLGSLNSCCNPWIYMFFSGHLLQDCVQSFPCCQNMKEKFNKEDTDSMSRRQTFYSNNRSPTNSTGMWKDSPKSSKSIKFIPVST

human V2 receptor, sequence (P30518 whole entry): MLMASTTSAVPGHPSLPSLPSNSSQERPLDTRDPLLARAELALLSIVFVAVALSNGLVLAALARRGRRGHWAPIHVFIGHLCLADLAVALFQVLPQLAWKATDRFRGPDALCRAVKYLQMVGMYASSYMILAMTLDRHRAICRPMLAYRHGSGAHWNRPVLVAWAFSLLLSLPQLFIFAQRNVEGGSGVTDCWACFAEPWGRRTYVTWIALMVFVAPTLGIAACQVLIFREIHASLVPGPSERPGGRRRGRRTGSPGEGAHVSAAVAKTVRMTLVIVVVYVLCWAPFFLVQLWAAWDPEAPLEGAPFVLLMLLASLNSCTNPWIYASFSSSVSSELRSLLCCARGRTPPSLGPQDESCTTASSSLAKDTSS

IC50 (human V2 receptor)	IC50 [1]	Structure (SMILES)
1300 nM	51 nM	Cc1ccc(N(C)C(=O)c2ccc(NC(=O)c3ccccc3N)cc2)c(OCCCCCC(=O)O)c1 [5-2), 4-(2-Aminobenzoyl)amino-N-methyl-N-[2-(5-carboxypent-1-yloxy)-4-methylphenyl]benzamide]
1300 nM	31 nM	CCOC(=O)CCCCCOc1cc(C)ccc1N(C)C(=O)c1ccc(NC(=O)c2ccccc2OCCCN)cc1 [17-20), 4-[2-(3-Aminoprop-1-yl)oxybenzoyl]amino-N-[2-(5-ethoxycarbonylpent-1-yl)oxy-4-methyl]phenyl-N-methylbenzamide hydrochoiride]
1400 nM	14 nM	CN1CCN(C(=O)CCCCCOc2ccccc2N(C)C(=O)c2ccc(NC(=O)c3ccccc3OCCCN)cc2)CC1 [Example 16, 4-[2-[(3-aminoprop-1-yl)oxy]benzoyl]amino-N-methyl-N-[2-[5-(4-methylpiperazin-1-yl)carbonylpent-1-yloxy]phenyl]benzamide dihydrochloride]
